Patent US9181237B2, “Substituted berbines and their synthesis” (MALLINCKRODT LLC, priority 2013, dated 2015)

Columns and labels:
[1] = test system: murine melanoma cell line, B16; assay: B16 cancer cell screening assay: inhibition of B16 proliferation; assay type: cell-based; conditions: B16 cells exposed to several concentrations; for IC50: read-out: B16 Profile IC50
Procedure: (§1) The murine melanoma cell line, B16, was used to screen the activity of compounds comprising Formula (V). B16 cells were grown under standard conditions and exposed to several concentrations of each of the tested compounds.

[2] = test system: murine melanoma cell line, B16; assay: B16 cancer cell screening assay: inhibition of lactate dehydrogenase (LDH) release; assay type: cell-based; conditions: B16 cells exposed to several concentrations
Procedure: as §1

[3] = Mus musculus, B16, inhibition of B16 proliferation
[4] = Mus musculus, B16, inhibition of lactate dehydrogenase (LDH) release
[5] = inhibition of lactate dehydrogenase (LDH) release
[6] = inhibition of B16 proliferation

IC50 [1, 3] [µM]	IC50 [2, 4] [µM]	Structure (SMILES)	further results
60	70	COc1ccc2c(c1)CCN1[C@H](c3ccccc3)c3c(ccc(OC)c3O)C[C@@H]21 [M-R-0024]	–
35	30	COc1cc2c(cc1O)C[C@H]1c3cc4c(cc3CCN1[C@H]2c1ccccc1)OCO4 [M-R-0018]	–
> 400	–	CCC[C@@H]1c2cc(OC)c(O)cc2C[C@H]2c3ccc(OC)cc3CCN12 [M-R-0007]	B16 LDH IC50 [2, 5]: Inactive
55	60	COc1cc2c(cc1O)[C@H](Cc1ccccc1)N1CCc3cc4c(cc3[C@@H]1C2)OCO4 [M-R-0026]	–
120	70	COc1cc2c(cc1OC)CN1CCc3cc4c(cc3[C@@H]1C2)OCO4 [M-R-0011]	–
65	~350	COc1ccc2c(c1)CCN1[C@H](Cc3ccccc3)c3c(O)c(OC)cc(Br)c3C[C@@H]21 [M-R-0021]	–
–	–	COc1ccc2c(c1)CCN1Cc3cc(OC)c(O)cc3C[C@H]21 [M-R-0009]	B16 Profile IC50 [1, 6]: Inactive; B16 LDH IC50 [2, 5]: Inactive
18	30	COc1ccc2c(c1)CCN1[C@@H](c3ccccc3Br)c3c(O)c(OC)cc(Br)c3C[C@@H]21 [M-R-0020]	–
45	50	COc1cc2c(cc1O)C[C@H]1c3cc4c(cc3CCN1[C@@H]2c1ccccc1)OCO4 [M-R-0019]	–
300	–	COc1ccc2c(c1)CCN1Cc3c(ccc(OC)c3O)C[C@H]21 [M-R-0010]	B16 LDH IC50 [2, 5]: Inactive
> 600	175	CC[C@@H]1c2c(ccc(OC)c2O)C[C@H]2c3ccc(OC)cc3CCN12 [M-R-0001]	–
> 600	> 700	COc1ccc2c(c1O)[C@H](Cc1ccccc1)N1CCc3cc4c(cc3[C@@H]1C2)OCO4 [M-R-0012]	–
> 600	> 600	COc1ccc2c(c1)CCN1Cc3cc(OC)c(O)cc3C[C@@H]21 [M-R-0004]	–
> 600	150	COc1ccc2c(c1)CCN1[C@H]2Cc2ccc(OC)c(O)c2[C@H]1C1CCC1 [M-R-0003]	–
25	30	COc1ccc2c(c1)CCN1[C@@H](c3ccccc3N)c3c(O)c(OC)cc(Br)c3C[C@@H]21 [M-R-0022]	–
200	200	COc1ccc2c(c1)CCN1[C@H]2Cc2cc(O)c(OC)cc2[C@H]1C1CCC1 [M-R-0002]	–
25	130	COc1ccc2c(c1)CCN1[C@H](c3ccccc3)c3cc(O)c(O)cc3C[C@@H]21 [M-R-0015]	–
38	> 320	COc1ccc2c(c1)CCN1Cc3c(ccc(OC)c3O)C[C@@H]21 [M-R-0008]	–
–	–	COc1cc2c(cc1O)[C@@H](Cc1ccccc1)N1CCc3cc4c(cc3[C@@H]1C2)OCO4 [M-R-0025]	IC50 [1, 6]: > 160 µM; IC50 [2, 5]: ~350 µM
35	30	COc1ccc2c(c1)CCN1[C@H](c3ccccc3)c3cc(OC)c(O)cc3C[C@@H]21 [M-R-0005]	–
10	70	COc1ccc2c(c1)CCN1[C@@H](c3ccccc3)c3cc(O)c(O)cc3C[C@@H]21 [M-R-0014]	–
55	60	COc1ccc2c(c1)CCN1[C@H](Cc3ccccc3)c3cc(OC)c(O)cc3C[C@@H]21 [M-R-0017]	–
75	700	COc1ccc2c(c1)CCN1[C@H](Cc3ccccc3)c3c(ccc(OC)c3O)C[C@@H]21 [M-R-0016]	–
35	35	COc1ccc2c(c1)CCN1[C@@H](c3ccccc3)c3cc(OC)c(O)cc3C[C@@H]21 [M-R-0006]	–
27	40	COc1ccc2c(c1)CCN1[C@H](c3ccccc3)c3c(O)c(OC)cc(Br)c3C[C@@H]21 [M-R-0023]	–
–	700	COc1cc2c(cc1O)[C@@H](Cc1ccccc1)N1CCc3cc4c(cc3[C@@H]1C2)OCO4 [M-R-0013]	IC50 [1, 6]: 75 µM
